Experimental data as given in EP0572494B1, “COMPOSITION FOR USE IN TRANSDERMAL ADMINISTRATION” (priority 1991, dated 1992).

Experiments:
[1] = Urinary ibuprofen after topical application to shaved dorsal skin; assay type: in vivo, Hooded Wistar rats; conditions: topically applied composition according to the invention
Excerpt: Four anesthetized Hooded Wistar rats were fitted with jugular and bladder catheters. […] Plastic covers were placed over the shaved area to prevent the animals ingesting the applied composition.
The animals were placed in metabolism cages and the urinary ibuprofin monitored.

[2] = according to Gruber et al; cited from earlier work
[3] = Particle size distribution by microscopic examination; assay type: physicochemical
Description: For the purposes of this specification the particle size of the particles was determined by microscopic examination. It should be assumed that the particles are of a constant thickness. The surface area of each visible particle face should be determined, and the particle size calculated by calculating the square root of the visible surface area of each particle.
(§1) The particle size of the ibuprofen crystallites precipitated during the cooling and stirring of the above formulation was compared with that of the unreacted ibuprofen powder. The respective particle sizes were determined by microscopic examination. It was assumed that the crystals were of a constant thickness. The surface area of each crystal was then determined, and the particle size calculated by calculating the square root of the measured surface area. This value was then taken to be the length of side. The total area of the counted particles was measured and the sum of the areas of the different size ranges estimated as a percentage of the total. The results were: Table 1
as §1, with “crystals” for “ibuprofen crystallites precipitated during the cooling and stirring of the above formulation was compared with that of the unreacted ibuprofen powder. The respective particle sizes”

Percentage Particles in Size range ([3]; size range 10-20µm) [Percentage] | Percentage Particles in Size range ([3]; size range 20-50µm) [Percentage] | Percentage Particles in Size range ([3]; size range 50-100µm) [Percentage] | Percentage Particles in Size range ([3]; size range >100µm) [Percentage] | SMILES | absorption kinetics [1] | time still being excreted after topical application [1] | solubility in water and conventional media [2]
– | – | – | – | CC(C)Cc1ccc(C(C)C(=O)O)cc1 (stereo not shown) [ibuprofen] | zero order kinetics | more than 160 hours | only sparingly soluble
0.36 | 0.57 | 2.7 | 96 | O=C1O[C@H]([C@@H](O)CO)C(O)=C1O [Unformulated Ascorbic Acid, ascorbic acid] | – | – | –
